{"source": "patent US8618074B2", "about": "“GPCR enhanced neuroprotection to treat brain injury” (Board of Regents of the University of Texas System, priority 2007, dated 2013)", "key": {"[1]": {"tested_on": "Mouse cortical neurons", "assay": "Neuronal survival in transwell co-culture with astrocytes under t-buOOH oxidative stress (Hoechst/calcein)", "format": "cell-based", "procedure": "(§1) Primary cultures of astrocytes were prepared as previously published (Lin et al., 2005). C57BL/6 male mice were purchased from the National Institute of Aging and maintained in standard accredited housing conditions at the University of Texas Health Science Center Animal Facility. Animal protocols were approved by our Institutional Animal Care Use Committee. Astrocytes were cultured in DMEM F-12 media (Invitrogen, # 11039-021) supplemented with 2 mM glutamine, nonessential amino acids, 10% fetal calf serum, 100 U/ml penicillin/streptomycin (Cambrex BioScience Walkersville, #17-602E) and 1% fungizone (Invitrogen, #15290-018) at 37° C. in an atmosphere containing 5% CO2. The culture medium was changed every 3-5 days. Confluent cells were gently removed by a trypsin EDTA solution and re-plated on 35 mm glass bottom chambers (Bioptechs #04200415C) prior to imaging experiments 3-4 days later. Cells were maintained in plastic culture flasks until the final re-seeding of cells onto a glass bottom chamber and were passed up to 3 times for astrocyte only experiments. For co-culture experiments with neurons, primary astrocytes were plated directly onto corning transwell-clear permeable supports, which physically separates the two cell-types by ˜1 mm (# 07-200-170, Fisher scientific). Astrocytes were cultured in transwells until they were ˜70% confluent. Mouse cortical neurons (Cambrex Bio Science Walkersville Inc., # M-CX-300) were then cultured onto 6 well mat-tek glass bottom plates and maintained in Neurobasal Medium (Invitrogen, # 21103-049), 2 mM L-Glutamine (Cambrex BioScience Walkersville, #17-605E), 100 U/ml penicillin/streptomycin (Cambrex BioScience Walkersville, #17-602E) and B-27 with (Invitrogen, #17504-044) and without antioxidants (Invitrogen, #10889-038), which controls glia contamination to less than 0.5%. The transwell supports with cultured astrocytes were placed in the neuron seeded glass bottom chambers for four days before imaging and both cell types were then maintained in neuronal media. For neuron only experiments, the astrocytes on the transwell supports were removed prior to treatments and imaging.\nSensitivity of neurons to oxidative stress was assessed by treating cultures with 100 μM tert-butyl hydrogen peroxide (t-BuOOH, Sigma, #B-2633) for 3 hours. Neurons were then stained with Hoechst 33342 (10 μg/ml, Molecular Probes, #H-3570) to label all cell nuclei and calcein AM (2 μM, #C3100, Molecular Probes, #C3100). […] Calcein fluorescence is only observed in live cells that have maintained their plasma membrane integrity. Images were acquired on an inverted Nikon TE300 microscope with a Hamamatsu ORCAER camera and Open lab software (Improvision).\nTo determine whether P2Y-R enhanced mitochondrial metabolism in astrocytes affected neuronal resistance to oxidative stress, we prepared co-cultures of neurons and astrocytes using corning transwell-clear permeable supports, which physically separates the two cell-types by ˜1 mm (# 07-200-170, Fisher scientific). Primary cultures of astrocytes were directly prepared in transwell supports until they were ˜70% confluent. Mouse cortical neurons were then cultured onto glass bottom mattek plates and maintained in B-27/Neurobasal Medium to control glia contamination to less than 0.5% (Invitrogen). After four days, co-cultures were treated with t-buOOH (100 μM) for 4 hours with and without pre-stimulation of ATP (2 μM, 10 minutes). Cells were then stained with the DNA intercalating dye Hoechst 33342 (10 μg/ml, Molecular Probes, #H-3570) and calcein AM (2 μM, Molecular Probes, #C3100). […] We then tested the neuroprotective affects of isoform specific purinergic ligands 2-MeSADP(P2Y1-R) and UTP(P2Y2-R). FIG. 6A depicts histogram plots of the percentage of neurons alive when cocultured with young or old astrocytes. FIG. 6B depicts histogram plots of the percentage of neurons alive pretreated with either 2-MeSADP (2 μM) or UTP (50 μM) for 10 min. […]"}, "[2]": {"tested_on": "astrocytes", "assay": "Time until mitochondrial membrane potential (ΔΨ, TMRE) collapse during t-BuOOH oxidative stress", "format": "cell-based, mouse", "settings": "for time until ΔΨ collapse: oligomycin 1 μg/ml 30 min pretreatment, t-buOOH 100 μM; for mean time until ΔΨ collapse: oligomycin pretreatment + extracellular ATP 10 minutes, then oxidative stress", "procedure": "as §1\nMitochondrial membrane potentials (ΔΨs) was measured as previously described using the potential sensitive dye tetra-methyl rhodamine ethyl ester (TMRE, Molecular Probes, #T-669) (Lin and Lechleiter, 2002). Images were acquired with a 60× oil 1.4 NA objective on a Nikon PCM2000 confocal microscope custom adapted for two-photon imaging. A Ti-sapphire Coherent Mira 900 Laser pumped with a 5W Verdi laser (Coherent Inc., Santa Clara, Calif.) was used to excite TMRE at 800 nm A neutral-density filter wheel was used to attenuate the laser intensity so that no detectable photobleaching of TMRE was observed.\nTo investigate this, primary cultures of astrocytes were prepared from the brains of young (4-6 months) and old (26-28 months) mice and re-plated on glass coverslips prior to each imaging experiment as previously described. Seeded glass coverslips were then sealed in an open chamber (Bioptechs Delta T) and perfused at 37° C. with the potential sensitive dye tetramethyl rhodamine ethyl ester (TMRE, 200 nM, Molecular Probes/Invitrogen) to label astrocyte mitochondria. Mitochondrial membrane potentials (ΔΨs) were measured every 5 minutes using two-photon microscopy. Each image is a maximum intensity projection of a z-stack of six optical sections (1-μm steps). Scale bar is 10 μm. Plated cells were continuously perfused at 37° C. with culture medium containing TMRE (200 nM) and imaged with 2-photon microscopy (800 nm). Oxidative stress was applied to the cells in the perfusate with t-BuOOH (100 μM). Cell viability was then monitored by the collapse of ΔΨ (TMRE fluorescence) to 10% of its initial value. The time course of ΔΨ collapse is plotted for 3 astrocytes (A1, A2, A3) in each culture (FIGS. 1B and 2B). Fluorescent units are scaled to 100% at 0 hours. […]"}}}
{"compound": "Nc1ncnc2c1ncn2[C@@H]1O[C@H](COP(=O)(O)OP(=O)(O)OP(=O)(O)O)[C@@H](O)[C@H]1O", "note": "[ATP]", "values": [{"measurement": "neuronal survival", "setting": "[1]; co-cultured with old astrocytes, ATP 2 μM 10 minutes pre-stimulation, t-buOOH 100 μM 4 hours", "value": "87±2", "unit": "%"}, {"measurement": "neuronal survival", "setting": "[1]; co-cultured with young astrocytes, ATP 2 μM 10 minutes pre-stimulation, t-buOOH 100 μM 4 hours", "value": "87±2", "unit": "%"}, {"measurement": "average time until ΔΨ collapse", "setting": "[2]; old astrocytes, ATP 10 μM 10 min prior to t-BuOOH 100 μM", "value": "6.65 ± 0.24", "unit": "h"}, {"measurement": "average time for ΔΨ to collapse", "setting": "[2]; young astrocytes, ATP 10 μM 10 min prior to t-BuOOH 100 μM", "value": "7.35 ± 0.23", "unit": "h"}]}
{"compound": "CSc1nc(N)c2ncn([C@@H]3O[C@H](COP(=O)(O)OP(=O)(O)O)[C@@H](O)[C@H]3O)c2n1", "note": "[2-MeSADP]", "values": [{"measurement": "% neurons alive (neuronal survival)", "setting": "[1]; anti-oxidant-free B-27, 2-MeSADP 2 μM 10 minutes, t-buOOH 100 μM 3 hours", "value": "43±3", "unit": "%"}, {"measurement": "% neurons alive", "setting": "[1]; co-cultures, 10 min pre-treatment 2-MeSADP 2 μM or UTP 50 μM, 4.5 hours of t-buOOH", "value": "70±2", "unit": "%"}]}
{"compound": "CC[C@H]1/C=C/C=C/C[C@@H](C)[C@H](O)[C@@](C)(O)C(=O)[C@@H](C)[C@H](O)[C@@H](C)C(=O)[C@@H](C)[C@H](O)[C@@H](C)/C=C/C(=O)O[C@@H]2[C@H](C)[C@H](CC1)O[C@]1(CC[C@H](C)[C@H](C[C@@H](C)O)O1)[C@H]2C", "note": "[oligomycin]", "values": [{"measurement": "neuronal survival", "setting": "[1]; anti-oxidant-free B-27, oligomycin 0.01 μM 30 minutes + 2-MeSADP, t-buOOH 3 hours", "value": "26±3", "unit": "%"}, {"measurement": "neuronal survival", "setting": "[1]; anti-oxidant-free B-27, oligomycin 0.01 μM 30 minutes, t-buOOH 3 hours", "value": "25±3", "unit": "%"}, {"measurement": "time until ΔΨ collapse", "setting": "[2]; old astrocytes", "value": "4.16 ± 0.14", "unit": "h"}, {"measurement": "mean time until ΔΨ collapse", "setting": "[2]; old astrocytes", "value": "3.21±0.08"}, {"measurement": "time until ΔΨ collapse", "setting": "[2]; young astrocytes", "value": "5.15 ± 0.08", "unit": "h"}, {"measurement": "mean time until ΔΨ collapse", "setting": "[2]; young astrocytes", "value": "4.69±0.23"}]}
